Results reported in patent EP3620052A1, “USE OF PHENOXYPYRIDINYL-SUBSTITUTED (1H-1,2,4-TRIAZOL-1-YL)ALCOHOLS FOR CONTROLLING FUNGICIDAL DISEASES IN MAIZE” (Bayer Aktiengesellschaft, priority 2018, dated 2020).

Tests used:
Type in all cases: in vivo
maize [1] = test: Field trials in Brazilian maize: crop response (phytotoxicity) after foliar spray; settings: 125 g a.i./ha, two foliar applications, Brazil field trials, assessed 14 - 28 days after second application, 5 trials
Experimental: (§1) In 2017/2018 five field trials in maize were conducted in order to study the effect of compounds of formula (I) and standard azole-type fungicides regarding disease control against leaf diseases and crop safety.
(§2) The trials were done under practical field conditions in Brazil in the Safrinha season with the commercially available maize varieties P30F53 Pioneer, P30F53 RR - Roundup Ready® Pioneer, P30F53YHV Pioneer, DKB 390 Dekalb® and DKB 390 IPRO3 Dekalb®.
(§3) These trials were conducted in the following federal states in Brazil: Goias, Mato Grosso, Minas Gerais, Parana and Sao Paulo.
(§4) The tested compounds / reference products, their respective formulation type and rates of application [g a.i./ha] Tab.1: Products, formulations and rates.
(§5) The products were sprayed twice in sequential, foliar applications at growth stages BBCH EC 39 - 55 and BBCH EC 51 - 69 with a spray interval of about 2 weeks with backpack or bicycle applicators.
(§6) The water quantity for the applications was 150 l / ha.
(§7) About 14 - 28 days after the second application crop response and disease control were assessed visually by rating the damaged leaves or plant parts.

Cercospora zeae maydis = test: Field trials in Brazilian maize: disease control (Abbott efficacy) after foliar spray; settings: 125 g a.i./ha, two foliar applications, Brazil, 2 trials; untreated control 40 % disease severity
Experimental: as §1, §2, §3, §4, §5, §6, §7
(§8) The efficacy against the pathogens listed in table 2 was calculated according to Abbott's formula: Efficacy (%) = (X−Y)/X × 100, [formula] wherein X is the disease severity in the control and Y is the disease severity in the treatment, and is shown in table 2 [%].

Helminthosporium spp. = test: as above; settings: 125 g a.i./ha, two foliar applications, Brazil, 3 trials; untreated control 22 % disease severity
Experimental: as §1, §2, §3, §4, §5, §6, §7, §8

Phaeosphaeria maydis = test: as above; settings: 125 g a.i./ha, two foliar applications, Brazil, 3 trials; untreated control 44 % disease severity
Experimental: as §1, §2, §3, §4, §5, §6, §7, §8

Puccinia polysora = test: as above; settings: 125 g a.i./ha, two foliar applications, Brazil, 1 trial; untreated control 73 % disease severity
Experimental: as §1, §2, §3, §4, §5, §6, §7, §8

Puccinia sorghi = test: as above; settings: 125 g a.i./ha, two foliar applications, Brazil, 2 trials; untreated control 20 % disease severity
Experimental: as §1, §2, §3, §4, §5, §6, §7, §8

maize [2] = test: Field trials in Brazilian maize: yield relative to untreated control; settings: 125 g a.i./ha, two foliar applications, Brazil, 3 trials; untreated control (43 dt/ha) = 100%
Experimental: as §1, §2, §3, §4, §5, §6
The yield of the untreated control (43 dt/ha) is set to 100% and the yield values for the other treatments are given in percent thereof. Tab. 2: Impact of foliar applications of tested compounds on crop response, disease control and yield.

maize [3] = test: Field trials in North American maize: crop response (phytotoxicity) after foliar spray; settings: for PTX (%): one foliar application BBCH EC 63 - 65, Canada/USA, 3 trials
[4] = system: Cochliobolus heterostrophus; test: Field trials in North American maize: disease control (Abbott efficacy) after foliar spray; settings: one foliar application, 1 trial, untreated control 12 % disease severity
Experimental: (§9) In 2018 eight field trials in maize were conducted in order to study the effect of compounds of formula (I) and standard azole-type fungicides regarding disease control against leaf diseases.
(§10) The trials were done under practical field conditions in Canada and the USA with the commercially available maize varieties DKC 62-08 Dekalb®, DKC 35-88 RIB RR2 BT Dekalb®, P7958 AM RR2 LL BT (Marc Hutlet Seeds Ltd.), NK1120-3122 RR+GLU+ECB+CRW (Syngenta), P9608AM LL RR2 CRW ECB (Pioneer) and Golden Bantam (conventional variety available from various companies worldwide).
(§11) These trials were conducted in the following provinces in Canada and federal states in North America: Ontario (Canada) and Georgia, Indiana, Iowa, Michigan, Ohio (all USA).
(§12) The tested compounds / reference products, their respective formulation type and rates of application [g a.i./ha] Tab.3: Products, formulations and rates.
(§13) In table 4 details of the formulations of (1-02) used in the different trials are listed. Tab.4: Formulations of (1-02) and a tank mixed surfactant used in different trials.
(§14) The products were sprayed with one foliar application at growth stage BBCH EC 63 - 65 with a high clearance sprayer or a backpack applicator.
(§15) The water quantity for the applications varied from 150 to 300 l/ha.
(§16) About 23 - 35 days after application the disease control was assessed visually by rating the damaged leaves or plant parts.
(§17) The efficacy against the pathogens listed in table 5 was calculated according to Abbott's formula: Efficacy (%) = (X−Y)/X × 100, [formula] wherein X is the disease severity in the control and Y is the disease severity in the treatment, and is shown in table 5 [%].

Kabatiella zeae = test: as above; settings: one foliar application, 1 trial, untreated control 17 % disease severity
Experimental: as §9, §10, §11, §12, §13, §14, §15, §16, §17

Setosphaeria turcica = test: as above; settings: one foliar application, 2 trials, untreated control 18 % disease severity
Experimental: as §9, §10, §11, §12, §13, §14, §15, §16, §17

maize [5] = test: Field trials in North American maize: yield relative to untreated control; settings: for Yield (% of Control): one foliar application, 2 trials, untreated control (112 dt/ha) = 100%
Experimental: as §9, §10, §11, §12, §13, §14, §15
The yield of the untreated control (112 dt/ha) is set to 100% and the yield values for the other treatments are given in percent thereof Tab. 5: Impact of foliar applications of tested compounds on disease control.

[6] = Canada/USA field trials, 60 -125 g a.i./ha

Row | Compound | PTX (%) (maize [1]) | Cercospora zeae maydis (% efficacy) (Cercospora zeae maydis) [%] | Helminthosporium spp. (% efficacy) (Helminthosporium spp.) [%] | Phaeosphaeria maydis (% efficacy) (Phaeosphaeria maydis) [%] | Puccinia polysora (% efficacy) (Puccinia polysora) [%] | Puccinia sorghi (% efficacy) (Puccinia sorghi) [%] | Yield (% of Control) (maize [2]) | PTX (%) (maize [3]; 60 g a.i./ha (100 EC or 250 SC)) | PTX (%) (maize [3]; 125 g a.i./ha (100 EC or 250 SC)) | crop safety (conclusion in words) (maize [3]; [6]) | Cochliobolus heterostrophus (% efficacy) ([4]; 60 g a.i./ha) [%] | Cochliobolus heterostrophus (% efficacy) ([4]; 125 g a.i./ha) [%] | Kabatiella zeae (% efficacy) (Kabatiella zeae; 60 g a.i./ha) [%] | Kabatiella zeae (% efficacy) (Kabatiella zeae; 125 g a.i./ha) [%] | Setosphaeria turcica (% efficacy) (Setosphaeria turcica; 60 g a.i./ha) [%] | Setosphaeria turcica (% efficacy) (Setosphaeria turcica; 125 g a.i./ha) [%] | Yield (% of Control) (maize [5]; 60 g a.i./ha) | Yield (% of Control) (maize [5]; 125 g a.i./ha) | impact on yield (conclusion in words) (maize [5]; [6])
1 | CC(O)(Cn1cncn1)c1ccc(Oc2ccc(Br)cc2)nc1C(F)(F)F (centres unmarked) [(I-02), 2-[6-(4-bromophenoxy)-2-(trifluoromethyl)-3-pyridyl]-1-(1,2,4-triazol-1-yl)propan-2-ol] | 0 | 70 | 63 | 64 | 74 | 68 | 112 % of Control | 0 | 0 | completely safe on the crop | 91 | 97 | 89 | 95 | 57 | 61 | 120 % of Control | 115 % of Control | positive impact on yield
2 | CC(O)(Cn1cncn1)c1ccc(Oc2ccc(Cl)cc2)nc1C(F)(F)F (centres unmarked) [(I-01), 2-[6-(4-chlorophenoxy)-2-(trifluoromethyl)-3-pyridyl]-1-(1,2,4-triazol-1-yl)propan-2-ol] | 0 | 61 | 65 | 68 | 76 | 71 | 123 % of Control |  |  |  |  |  |  |  |  |  |  |  | 
